Source: patent US7754683B2, “Bioactive peptide of bone morphogenetic protein-2” (priority 2005, dated 2010)
Square brackets hold non-standard residues; d marks the D form. Ends that are not written are not given here. pS = N[C@@H](COP(=O)(O)O)C(=O)O

System: Wistar rats
Experiment: Experimental research on animal ectopic osteogenesis (peptide/collagen sponge implantation)
Format: in vivo
Conditions: for ectopic osteogenesis by CT scan imaging: 0.4 mg peptide on collagen sponge implanted in sacral spine muscles, CT at 3, 6, 8 weeks; for ectopic osteogenesis ability (overall result) / formation of new bone by histological examination (HE staining): 0.4 mg peptide/collagen sponge; for formation of new bone by histological examination (HE staining): eighth week
Description: The scaffold material is collagen sponge, the size of which is 5×5×5 mm^3. Three bone morphogenetic protein-2 active peptides are dissolved into saline solution, and then dropped on the collagen sponge in accordance with the 0.4 mg dose. Meanwhile, equivalent saline solution is dropped on the control pure collagen sponge, and freeze-dried for reserve after complete absorption.
(2) groups: 36 Wistar rats are randomly divided into three experimental groups, namely 0.4 mg bone morphogenetic protein-2 active peptide 1/collagen sponge group, 0.4 mg bone morphogenetic protein-2 active peptide 2/[…] group and 0.4 mg bone morphogenetic protein-2 active peptide 3/collagen sponge group, and the control group is using pure collagen sponge.
The anesthesia of rats is achieved by ketamine intraperitoneal injection. For two experimental groups, 0.4 mg bone morphogenetic protein-2 active peptide 1/collagen sponge and 0.4 mg bone morphogenetic protein-2 active peptide 2/collagen sponge are respectively implanted with 1 cm incision in the sacral spine muscles on the back. For […], pure collagen sponge of the same size is implanted into the gaps along one side of sacral spine muscles. CT radiography inspection of three rats groups is done after implantation in the 3, 6, 8 weeks, and then four rats of each group are killed at each time point. Local tissues of implant materials are sampled, after fixation by formaldehyde and paraffin-embedded sections, and histological observation is done with HE staining.

For “C16H31O—NH—CCCCGGGS^[PO4]KIPKASSVPTELSAISTLYL”, the “ectopic osteogenesis by CT scan imaging” value was “significant ectopic osteogenesis”, the “ectopic osteogenesis ability (overall result)” value (shortened to “ectopic osteogenesis ability”) was “good ectopic osteogenesis ability” and the “formation of new bone by histological examination (HE staining)” value was “significant formation of new bone”.

In the case of “CCCCDDDS^[PO4]KIPKASSVPTELSAISTLYL (CCCCDDD[pS]KIPKASSVPTELSAISTLYL; cysteine pairing not given here)”, the “ectopic osteogenesis by CT scan imaging” value is reported as “significant ectopic osteogenesis”, the “ectopic osteogenesis ability” value is reported as “good ectopic osteogenesis ability” and the “formation of new bone by histological examination (HE staining)” value is reported as “significant formation of new bone”.

With “S^[PO4]KIPKASSVPTELSAISTLYLDDD ([pS]KIPKASSVPTELSAISTLYLDDD)” the “ectopic osteogenesis by CT scan imaging” value was “significant ectopic osteogenesis”, the “ectopic osteogenesis ability” value was “good ectopic osteogenesis ability” and the “formation of new bone by histological examination (HE staining)” value was “significant formation of new bone”.
